Measured values as given in patent publication US8962630B2, “Pyrrolopyrimidine compounds and their uses” (Novartis AG, priority 2008, dated 2015).
Like-named read-outs stand apart in the source and are kept apart here.

How the values were obtained:
[1] = molecular target: CDK4/cyclin D1 (Homo sapiens (Human), UniProt P11802); assay: CDK4/Cyclin D1 enzymatic activity assay (Lance TR-FRET); format: biochemical
Procedure, shortened: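 Recombinant His6-CDK4/GST-cyclin D1 (Sf21-expressed), 0.3 nM, phosphorylated 175 nM pRb152 with 3 μM ATP in HEPES pH 7.5, Mg/Mn buffer, 2% DMSO, 60 min at room temperature. Compound range 0.005-10 μM. EDTA-quenched; pRb S780 phosphorylation read by TR-FRET (Eu anti-rabbit/APC-streptavidin) for IC50.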

[2] = molecular target: CDK1/cyclin B (Homo sapiens (Human), UniProt P06493); assay: CDK1/Cyclin B enzymatic activity assay (IMAP-FP); format: biochemical
Sequence of CDK1/cyclin B (P06493 whole entry, species assumed): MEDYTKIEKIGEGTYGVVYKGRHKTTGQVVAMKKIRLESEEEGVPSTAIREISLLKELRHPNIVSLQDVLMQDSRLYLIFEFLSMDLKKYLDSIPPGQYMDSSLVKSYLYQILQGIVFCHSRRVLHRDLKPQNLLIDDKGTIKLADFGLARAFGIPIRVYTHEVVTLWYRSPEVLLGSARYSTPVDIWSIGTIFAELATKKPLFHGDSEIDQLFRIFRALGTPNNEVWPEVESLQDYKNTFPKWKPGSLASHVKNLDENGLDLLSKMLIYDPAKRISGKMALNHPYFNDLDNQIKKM
Sequence of CDK1/cyclin B (P14635 whole entry partner, species assumed): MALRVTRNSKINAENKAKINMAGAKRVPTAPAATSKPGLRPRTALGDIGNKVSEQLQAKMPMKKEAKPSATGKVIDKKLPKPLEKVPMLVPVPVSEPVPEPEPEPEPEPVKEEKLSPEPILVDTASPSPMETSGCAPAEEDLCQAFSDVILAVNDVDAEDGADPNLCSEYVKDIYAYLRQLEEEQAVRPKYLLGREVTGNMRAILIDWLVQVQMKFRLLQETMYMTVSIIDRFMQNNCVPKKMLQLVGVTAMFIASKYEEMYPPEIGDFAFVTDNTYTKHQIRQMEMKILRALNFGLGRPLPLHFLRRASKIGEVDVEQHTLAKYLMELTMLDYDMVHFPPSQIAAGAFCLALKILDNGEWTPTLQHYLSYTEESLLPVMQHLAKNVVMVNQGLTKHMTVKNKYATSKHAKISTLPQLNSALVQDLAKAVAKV
Excerpt: A 384-well microtiter IMAP-FPT™ (Molecular Devices Trade Mark Technology) endpoint assay was used for CDK1/cyclin B kinase activity measurements. The same assay was used for IC50 determination of small molecule inhibitors.

[3] = molecular target: CDK2/cyclin A (Homo sapiens (Human), UniProt P24941); assay: CDK2/Cyclin A enzymatic activity assay (IMAP-FP); format: biochemical
[4] = system: cell cycle; assay: cell cycle analysis; format: cell-based; details: up to 10 uM
[5] = system: pRb negative cells; assay: cell proliferation of pRb negative cells; format: cell-based; details: high concentrations
[6] = Table 4, read-out: IC50 (μM) CDK4
[7] = Table 4, read-out: IC50 (μM) CDK1
[8] = Table 4, read-out: IC50 (μM) CDK2
[9] = Table 2, 3 μM ATP, read-out: CDK4
[10] = Table 2, 20 μM ATP, read-out: CDK1

Sequence of CDK4/cyclin D1 (P11802 whole entry): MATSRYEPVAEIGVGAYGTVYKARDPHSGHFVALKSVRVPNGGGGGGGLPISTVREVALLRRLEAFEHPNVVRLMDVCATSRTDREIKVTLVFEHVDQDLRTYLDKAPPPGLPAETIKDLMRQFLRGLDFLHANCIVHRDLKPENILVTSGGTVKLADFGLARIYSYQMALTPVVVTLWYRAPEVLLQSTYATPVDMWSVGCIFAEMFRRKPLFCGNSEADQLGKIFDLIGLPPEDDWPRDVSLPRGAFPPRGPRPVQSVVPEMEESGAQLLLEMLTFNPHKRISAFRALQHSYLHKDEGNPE
Sequence of CDK4/cyclin D1 (P24385 whole entry partner): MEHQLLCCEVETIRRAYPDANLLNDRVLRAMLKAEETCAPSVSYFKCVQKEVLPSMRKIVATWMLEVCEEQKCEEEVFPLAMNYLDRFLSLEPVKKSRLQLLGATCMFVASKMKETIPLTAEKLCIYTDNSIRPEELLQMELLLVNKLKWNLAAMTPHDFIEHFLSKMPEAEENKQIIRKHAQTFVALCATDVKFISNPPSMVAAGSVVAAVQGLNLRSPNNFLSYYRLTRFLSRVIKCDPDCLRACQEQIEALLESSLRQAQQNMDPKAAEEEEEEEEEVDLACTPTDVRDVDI

SMILES | IC50 [1, 6] | IC50 [2, 7] | IC50 [3, 8] | IC50 [1, 9] | IC50 [2, 10] | IC50 ([3]; Table 2, read-out: CDK2) | cell cycle arrest phase [4] | inhibition of cell proliferation of pRb negative cells [5]
CN(C)C(=O)c1cc2cnc(Nc3ccc(N4CCNCC4)cc3)nc2n1C1CCCC1 [Example 200, reference compound] | 0.005 µM | > 1.6 µM | > 1.4 µM | – | – | – | starts to induce G2/M phase blocks at 1 and 10 uM concentrations | does inhibit the cell proliferation of pRb negative cells at high concentrations
CC1CN(c2ccc(Nc3ncc4cc(C(=O)N(C)C)n(C5CCCC5)c4n3)nc2)CCN1 (centres unmarked) [Example 19, 7-Cyclopentyl-2-[5-(3-methyl-piperazin-1-yl)-pyridin-2-ylamino]-7H-pyrrolo[2,3-d]pyrimidine-6-carboxylic acid dimethylamide] | – | – | – | 0.001 to 0.01 µM | > 15 µM | > 15 µM | – | –
CC(C)N1CCN(Cc2ccc(Nc3ncc4cc(C(=O)N(C)C)n(C5CCCC5)c4n3)nc2)CC1 [Example 62, 7-Cyclopentyl-2-[5-(4-isopropyl-piperazin-1-ylmethyl)-pyridin-2-ylamino]-7H-pyrrolo[2,3-d]pyrimidine-6-carboxylic acid dimethylamide] | – | – | – | 0.01 to 0.1 µM | > 15 µM | > 15 µM | – | –
CN(C)C(=O)c1cc2cnc(Nc3ccc(C(=O)N(C)CCN)cn3)nc2n1C1CCCC1 [Example 41, 2-{5-[(2-Amino-ethyl)-methyl-carbamoyl]-pyridin-2-ylamino}-7-cyclopentyl-7H-pyrrolo[2,3-d]pyrimidine-6-carboxylic acid dimethylamide] | – | – | – | 0.001 to 0.01 µM | 14.8 µM | 4.7 µM | – | –
CC1CN(c2ccc(Nc3ncc4cc(C(=O)N(C)C)n(C5CCCC5)c4n3)nc2)CC(C)N1 (centres unmarked) [Example 24, 7-Cyclopentyl-2-[5-(3,5-dimethyl-piperazin-1-yl)-pyridin-2-ylamino]-7H-pyrrolo[2,3-d]pyrimidine-6-carboxylic acid dimethylamide] | – | – | – | 0.01 to 0.1 µM | > 15 µM | > 15 µM | – | –
CC(C)N1CCN(c2ccc(Nc3ncc4cc(C(=O)N(C)C)n(C5CCCC5)c4n3)nn2)CC1 [Example 70, 7-Cyclopentyl-2-[6-(4-isopropyl-piperazin-1-yl)-pyridazin-3-ylamino]-7H-pyrrolo[2,3-d]pyrimidine-6-carboxylic acid dimethylamide] | – | – | – | 0.01 to 0.1 µM | > 15 µM | > 15 µM | – | –
CN(C)C(=O)c1cc2cnc(Nc3ccc(N4CCC(N(C)C)CC4)cn3)nc2n1C1CCCC1 [Example 6, 7-Cyclopentyl-2-(4-dimethylamino-3,4,5,6-tetrahydro-2-[1,3′]bipyridinyl-6′-ylamino)-7H-pyrrolo[2,3-d]pyrimidine-6-carboxylic acid dimethylamide] | – | – | – | 0.001 to 0.01 µM | > 15 µM | > 15 µM | – | –
CN(C)C(=O)c1cc2cnc(Nc3ccc(N4CCN(C(=O)N5CCCCC5)CC4)cn3)nc2n1C1CCCC1 [Example 94, 7-Cyclopentyl-2-{5-[4-(piperidine-1-carbonyl)-piperazin-1-yl]-pyridin-2-ylamino}-7H-pyrrolo[2,3-d]pyrimidine-6-carboxylic acid dimethylamide] | – | – | – | 0.01 to 0.1 µM | > 15 µM | > 15 µM | – | –
C[C@H]1CN(c2ccc(Nc3ncc4cc(C(=O)N(C)C)n(C5CCCC5)c4n3)nc2)CCN1CCO [Example 82, 7-Cyclopentyl-2-{5-[(S)-4-(2-hydroxy-ethyl)-3-methyl-piperazin-1-yl]-pyridin-2-ylamino}-7H-pyrrolo[2,3-d]pyrimidine-6-carboxylic acid dimethylamide] | – | – | – | 0.01 to 0.1 µM | > 15 µM | > 15 µM | – | –
CNC(=O)c1cc2cnc(Nc3ccc(N4CCNCC4)cn3)nc2n1C1CCCC1 [Example 58, 7-Cyclopentyl-2-(5-piperazin-1-yl-pyridin-2-ylamino)-7H-pyrrolo[2,3-d]pyrimidine-6-carboxylic acid methylamide] | – | – | – | 0.01 to 0.1 µM | > 15 µM | > 15 µM | – | –

Further lines, with some results ahead:

IC50 [1, 6] | IC50 [2, 7] | IC50 [3, 8] | IC50 [1, 9] | IC50 [2, 10] | IC50 ([3]; Table 2, read-out: CDK2) | SMILES | cell cycle arrest phase [4] | inhibition of cell proliferation of pRb negative cells [5]
0.008 µM | > 15 µM | > 15 µM | 0.001 to 0.01 µM | > 15 µM | > 15 µM | CC(C)N1CCN(c2ccc(Nc3ncc4cc(C(=O)N(C)C)n(C5CCCC5)c4n3)nc2)CC1 [Example 63, 7-Cyclopentyl-2-[5-(4-isopropyl-piperazin-1-yl)-pyridin-2-ylamino]-7H-pyrrolo[2,3-d]pyrimidine-6-carboxylic acid dimethylamide] | – | –
– | – | – | 0.01 to 0.1 µM | > 15 µM | > 15 µM | C[C@@H](O)CN1CCN(c2ccc(Nc3ncc4cc(C(=O)N(C)C)n(C5CCCC5)c4n3)nc2)CC1 [Example 57, 7-Cyclopentyl-2-{5-[4-((R)-2-hydroxy-propyl)-piperazin-1-yl]-pyridin-2-ylamino}-7H-pyrrolo[2,3-d]pyrimidine-6-carboxylic acid dimethylamide] | – | –
– | – | – | 0.01 to 0.1 µM | > 15 µM | > 15 µM | CN1CCN(Cc2ccc(Nc3ncc4cc(C(=O)N(C)C)n(C5CCCC5)c4n3)nc2)CC1 [Example 43, 7-Cyclopentyl-2-[5-(4-methyl-piperazin-1-ylmethyl)-pyridin-2-ylamino]-7H-pyrrolo[2,3-d]pyrimidine-6-carboxylic acid dimethylamide] | – | –
– | – | – | 0.01 to 0.1 µM | > 15 µM | > 15 µM | CN(C)C(=O)c1cc2cnc(Nc3ccc(N4CCN(CC(C)(C)O)CC4)cn3)nc2n1C1CCCC1 [Example 71, 7-Cyclopentyl-2-{5-[4-(2-hydroxy-2-methyl-propyl)-piperazin-1-yl]-pyridin-2-ylamino}-7H-pyrrolo[2,3-d]pyrimidine-6-carboxylic acid dimethylamide] | – | –
– | – | – | 0.01 to 0.1 µM | > 15 µM | > 15 µM | CC(C(=O)O)N1CCN(c2ccc(Nc3ncc4cc(C(=O)N(C)C)n(C5CCCC5)c4n3)nc2)CC1 (centres unmarked) [Example 103, 2-{4-[6-(7-Cyclopentyl-6-dimethylcarbamoyl-7H-pyrrolo[2,3-d]pyrimidin-2-ylamino)-pyridin-3-yl]-piperazin-1-yl}-propionic acid] | – | –
– | – | – | 0.01 to 0.1 µM | > 15 µM | > 15 µM | CN(C)C(=O)c1cc2cnc(Nc3ccc(N4CCN(C(=O)CN)CC4)cn3)nc2n1C1CCCC1 [Example 12, 2-{5-[4-(2-Amino-acetyl)-piperazin-1-yl]-pyridin-2-ylamino}-7-cyclopentyl-7H-pyrrolo[2,3-d]pyrimidine-6-carboxylic acid dimethylamide] | – | –
